Measurements published in PubChem BioAssay AID248 (DTP/NCI, 2004).
Values joined by “and” are separate entries in the source; they are usually repeats but may differ in a detail not shown here. Equal entries are not always repeated. Inconclusive results and toxic doses are left out.

Test system: L1210 leukemia ip in BDF1 mice, survival T/C
Assay: NCI In Vivo Anticancer Drug Screen. Data for tumor model L1210 Leukemia (intraperitoneal) in B6D2F1 (BDF1) mice
Details: endpoint: mean survival time, higher = longer survival
Summary of the method: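 Mice bearing the transplanted tumor received compound or vehicle. Survival of the treated group was divided by that of the vehicle-treated control group to give the ratio.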

[1] = dose: 25.0 mg/kg/injection, schedule: Q01DX009 (ip), vehicle: saline
[2] = dose: 50.0 mg/kg/injection, schedule: Q01DX009 (ip), vehicle: saline
[3] = dose: 100.0 mg/kg/injection, schedule: Q04DX003 (ip), vehicle: Klucel (hydroxypropylcellulose) (HPC)
[4] = dose: 200.0 mg/kg/injection, schedule: Q04DX003 (ip), vehicle: Klucel (hydroxypropylcellulose) (HPC)
[5] = dose: 100.0 mg/kg/injection, schedule: Q01DX009 (ip), vehicle: Klucel (hydroxypropylcellulose) (HPC)
[6] = dose: 200.0 mg/kg/injection, schedule: Q01DX009 (ip), vehicle: Klucel (hydroxypropylcellulose) (HPC)
[7] = dose: 400.0 mg/kg/injection, schedule: Q01DX009 (ip), vehicle: Klucel (hydroxypropylcellulose) (HPC)
[8] = dose: 25.0 mg/kg/injection, schedule: Q01DX009 (ip), vehicle: saline with Tween-80
[9] = dose: 50.0 mg/kg/injection, schedule: Q01DX009 (ip), vehicle: saline with Tween-80
[10] = dose: 100.0 mg/kg/injection, schedule: Q01DX009 (ip), vehicle: saline with Tween-80
[11] = dose: 400.0 mg/kg/injection, schedule: Q04DX003 (ip), vehicle: Klucel (hydroxypropylcellulose) (HPC)
[12] = dose: 100.0 mg/kg/injection, schedule: Q04DX002 (ip), vehicle: Klucel (hydroxypropylcellulose) (HPC)
[13] = dose: 200.0 mg/kg/injection, schedule: Q04DX002 (ip), vehicle: Klucel (hydroxypropylcellulose) (HPC)
[14] = dose: 100.0 mg/kg/injection, schedule: Q04DX003 (ip), vehicle: saline with Tween-80
[15] = dose: 200.0 mg/kg/injection, schedule: Q04DX003 (ip), vehicle: saline with Tween-80
[16] = dose: 400.0 mg/kg/injection, schedule: Q04DX003 (ip), vehicle: saline with Tween-80
[17] = dose: 100.0 mg/kg/injection, schedule: Q01DX009 (ip), vehicle: saline
[18] = dose: 100.0 mg/kg/injection, schedule: Q04DX003 (ip), vehicle: saline
[19] = dose: 200.0 mg/kg/injection, schedule: Q04DX003 (ip), vehicle: saline
[20] = dose: 100.0 mg/kg/injection, schedule: Q04DX002 (ip), vehicle: saline with Tween-80
[21] = dose: 200.0 mg/kg/injection, schedule: Q04DX002 (ip), vehicle: saline with Tween-80
[22] = dose: 50.0 mg/kg/injection, schedule: Q04DX002 (ip), vehicle: Klucel (hydroxypropylcellulose) (HPC)

C=C(C)C1(O)C=CC(=O)O1 (configuration not stated)
T/C (dose: 12.5 mg/kg/injection, schedule: Q01DX009 (ip), vehicle: saline): 102 % of control | T/C [1]: 100 % of control | T/C [2]: 107 % of control

O=C1NC(=O)/C(=C/c2ccco2)N1
T/C [3]: 103 % of control | T/C [4]: 90 % of control

CCN(CCNc1cc(C)nc(/N=C(\N)Nc2ccc(Cl)c(Cl)c2)n1)CC(C)(C)O
T/C (dose: 75.0 mg/kg/injection, schedule: Q01DX001 (ip), vehicle: other): 93 % of control | T/C (dose: 150.0 mg/kg/injection, schedule: Q01DX001 (ip), vehicle: other): 95 % of control | T/C (dose: 300.0 mg/kg/injection, schedule: Q01DX001 (ip), vehicle: other): 104 % of control

COc1cc(-c2cc(-c3ccccc3)c3ccccc3n2)cc(OC)c1OC
T/C [5]: 97 % of control | T/C [6]: 100 % of control | T/C [7]: 96 % of control

O=C(/C=C/c1ccc([N+](=O)[O-])cc1)Nc1cccc(S(=O)(=O)F)c1
T/C (dose: 100.0 mg/kg/injection, schedule: Q01DX001 (ip), vehicle: saline): 107 % of control | T/C (dose: 200.0 mg/kg/injection, schedule: Q01DX001 (ip), vehicle: saline): 112 % of control | T/C (dose: 400.0 mg/kg/injection, schedule: Q01DX001 (ip), vehicle: saline): 101 % of control

NS(=O)(=O)c1nc[nH]c1[N+](=O)[O-]
T/C (dose: 100.0 mg/kg/injection, schedule: Q01DX009 (ip), vehicle: acetone): 92 % of control | T/C (dose: 200.0 mg/kg/injection, schedule: Q01DX009 (ip), vehicle: acetone): 90 % of control

O=c1[nH]c2cc(Cl)ccc2c(CCl)c1Cl
T/C [8]: 92 % of control | T/C [9]: 94 % of control | T/C [10]: 89 % of control | T/C (dose: 100.0 mg/kg/injection, schedule: Q04DX003 (ip), vehicle: acetone): 100 % of control

COc1cc(N=Nc2ccc3c(c2)Cc2ccccc2-3)c(OC)cc1N
T/C (dose: 100.0 mg/kg/injection, schedule: Q01DX001 (ip), vehicle: other): 111 % of control | T/C (dose: 200.0 mg/kg/injection, schedule: Q01DX001 (ip), vehicle: other): 88 % of control | T/C (dose: 400.0 mg/kg/injection, schedule: Q01DX001 (ip), vehicle: other): 105 % of control

S=c1nc[nH]c2ccccc12
T/C [5]: 93 % of control | T/C [3]: 91 % of control | T/C [6]: 95 % of control | T/C [4]: 94 % of control | T/C [7]: 88 % of control | T/C [11]: 98 % of control

CN1C(=O)c2ccccc2C1(N)c1ccccc1 (configuration not stated)
T/C [5]: 90 % of control | T/C [6]: 105 % of control | T/C [7]: 100 % of control

CCOP(=O)(OCC)C(C)C#N (configuration not stated)
T/C (dose: 15.0 mg/kg/injection, schedule: Q01DX001 (ip), vehicle: saline): 95 % of control | T/C (dose: 30.0 mg/kg/injection, schedule: Q01DX001 (ip), vehicle: saline): 100 % of control

c1ccc(C2CCN3c4ccc5ccccc5c4NCC23)cc1 (configuration not stated)
T/C [12]: 107 % of control | T/C [13]: 93 % of control | T/C (dose: 400.0 mg/kg/injection, schedule: Q04DX002 (ip), vehicle: Klucel (hydroxypropylcellulose) (HPC)): 93 % of control

O=S1(=O)C2CCC(C2)C1Cl (configuration not stated)
T/C [8]: 102 % of control | T/C [9]: 101 % of control

CCOC(=O)CN(C(=O)OCc1ccccc1)N(C)C(=O)OCc1ccccc1
T/C (dose: 25.0 mg/kg/injection, schedule: Q04DX003 (ip), vehicle: saline with Tween-80): 101 % of control | T/C (dose: 50.0 mg/kg/injection, schedule: Q04DX003 (ip), vehicle: saline with Tween-80): 94 % of control | T/C [14]: 101 % of control | T/C [15]: 97 % of control | T/C [16]: 101 % of control

O=C(CCCCC(=O)Nc1ccc(C(=O)Nc2cc(C3=NCCN3)cc(C3=NCCN3)c2)cc1)Nc1ccc(C(=O)Nc2cc(C3=NCCN3)cc(C3=NCCN3)c2)cc1
T/C (dose: 35.0 mg/kg/injection, schedule: Q01DX Z (ip), vehicle: saline): 102 % of control | T/C (dose: 55.0 mg/kg/injection, schedule: Q01DX Z (ip), vehicle: saline): 103 % of control

NC(=O)/C=C\C(N)=O
T/C [2]: 103 % of control | T/C (dose: 50.0 mg/kg/injection, schedule: Q04DX003 (ip), vehicle: saline): 100 % of control | T/C [17]: 99 % of control | T/C [18]: 104 % of control | T/C [19]: 99 % of control

Nc1cccc2c1ccc1ccc3ccccc3c12
T/C (dose: 100.0 mg/kg/injection, schedule: Q01DX001 (ip), vehicle: Klucel (hydroxypropylcellulose) (HPC)): 103 % of control | T/C (dose: 200.0 mg/kg/injection, schedule: Q01DX001 (ip), vehicle: Klucel (hydroxypropylcellulose) (HPC)): 101 % of control | T/C (dose: 400.0 mg/kg/injection, schedule: Q01DX001 (ip), vehicle: Klucel (hydroxypropylcellulose) (HPC)): 108 % of control

CN(C(=O)COc1ccc([N+](=O)[O-])cc1Cl)c1ccc(S(=O)(=O)F)cc1
T/C [18]: 104 % of control | T/C [19]: 95 % of control | T/C (dose: 400.0 mg/kg/injection, schedule: Q04DX003 (ip), vehicle: saline): 96 % of control

CCOC(=O)c1ncn(-c2ccccc2)c1C(=O)OCC
T/C (dose: 100.0 mg/kg/injection, schedule: Q04DX002 (ip), vehicle: carboxymethylcellulose (CMC)): 100 % of control | T/C (dose: 100.0 mg/kg/injection, schedule: Q04DX003 (ip), vehicle: carboxymethylcellulose (CMC)): 96 % of control and 100 % of control | T/C (dose: 200.0 mg/kg/injection, schedule: Q04DX002 (ip), vehicle: carboxymethylcellulose (CMC)): 97 % of control and 104 % of control | T/C (dose: 200.0 mg/kg/injection, schedule: Q04DX003 (ip), vehicle: carboxymethylcellulose (CMC)): 96 % of control and 101 % of control | T/C (dose: 400.0 mg/kg/injection, schedule: Q04DX002 (ip), vehicle: carboxymethylcellulose (CMC)): 94 % of control and 86 % of control | T/C (dose: 400.0 mg/kg/injection, schedule: Q04DX003 (ip), vehicle: carboxymethylcellulose (CMC)): 94 % of control and 92 % of control

O=C(O)CCCNCc1cc(=O)[nH]c(=O)[nH]1
T/C [18]: 101 % of control

O=C(c1ccccc1)c1ccsc1C(=O)c1ccccc1
T/C [9]: 89 % of control | T/C [10]: 86 % of control | T/C (dose: 200.0 mg/kg/injection, schedule: Q01DX009 (ip), vehicle: saline with Tween-80): 89 % of control

Cl/C(=C/C=C(c1ccccc1)c1ccccc1)c1ccccc1
T/C [20]: 88 % of control | T/C [21]: 88 % of control

CCCC(=O)C(CC)C(O)(C(F)(F)F)C(F)(F)F (configuration not stated)
T/C [17]: 92 % of control | T/C (dose: 200.0 mg/kg/injection, schedule: Q01DX009 (ip), vehicle: saline): 94 % of control

O=C(Nc1ccccc1F)Oc1cccc(C(F)(F)F)c1
T/C [1]: 103 % of control | T/C [2]: 110 % of control | T/C [17]: 103 % of control

CCOc1nc(N)nc(N)c1-c1ccccc1
T/C [20]: 111 % of control | T/C [21]: 96 % of control | T/C (dose: 400.0 mg/kg/injection, schedule: Q04DX002 (ip), vehicle: saline with Tween-80): 100 % of control

COc1ccc(C(=O)N/N=C/c2ccco2)cc1
T/C [5]: 100 % of control | T/C [6]: 86 % of control

COC(=O)c1ccccn1
T/C [20]: 100 % of control | T/C [21]: 107 % of control

c1ccc(CCN2COc3c(ccc4cccnc34)C2)cc1
T/C [14]: 102 % of control | T/C [16]: 90 % of control

COc1ccc(OC)c2[nH]c(=O)c(-c3ccccc3)nc12
T/C [14]: 97 % of control | T/C [15]: 95 % of control | T/C [16]: 91 % of control

CCOC(=O)c1c[nH]c(=O)n(-c2ccccc2)c1=O
T/C [3]: 109 % of control | T/C [4]: 92 % of control | T/C [11]: 106 % of control

COC1OC(CI)C(OC(C)=O)C(OC(C)=O)C1OC(C)=O (configuration not stated)
T/C [22]: 94 % of control | T/C [12]: 94 % of control | T/C [13]: 97 % of control

O=C(OC(c1ccccc1)c1ccccc1)C(CSC(c1ccccc1)(c1ccccc1)c1ccccc1)NC(c1ccccc1)(c1ccccc1)c1ccccc1 (configuration not stated)
T/C [3]: 91 % of control | T/C [4]: 92 % of control

N/C(=N\OC(=O)c1ccccc1)c1ccccc1
T/C [22]: 96 % of control | T/C [12]: 104 % of control | T/C [13]: 93 % of control
